Drawing on ChEMBL document CHEMBL1909046, “DrugMatrix in vitro pharmacology data”, this text covers IC50 and Ki for 10 molecules.

In one data set the target is Cytochrome P450 2E1 (Homo sapiens, UniProt P05181). The settings on record: bti-tn-5b1-4. Note: in other assays of this panel Not Active means under 50% inhibition at 10 µM.
Data set [1] addresses Epidermal growth factor receptor (Homo sapiens, UniProt P00533). The experiment in a line: DRUGMATRIX: Protein Tyrosine Kinase, EGF Receptor enzyme inhibition (substrate: Poly(Glu:Tyr)). The class given is cell-based, Insect cells. The settings on record: Not Active = under 50% inhibition at 10 µM.
The target of data set [2] is 5-hydroxytryptamine receptor 1B (Rattus norvegicus, UniProt P28564). In kind it is cell membranes, Wistar, Cerebral cortex, Membrane. Note: in other assays of this panel Not Active means under 50% inhibition at 10 µM.
The target of a further data set is T1, D(4) dopamine receptor (Homo sapiens, UniProt P21917).
T1 sequence (P21917 whole entry): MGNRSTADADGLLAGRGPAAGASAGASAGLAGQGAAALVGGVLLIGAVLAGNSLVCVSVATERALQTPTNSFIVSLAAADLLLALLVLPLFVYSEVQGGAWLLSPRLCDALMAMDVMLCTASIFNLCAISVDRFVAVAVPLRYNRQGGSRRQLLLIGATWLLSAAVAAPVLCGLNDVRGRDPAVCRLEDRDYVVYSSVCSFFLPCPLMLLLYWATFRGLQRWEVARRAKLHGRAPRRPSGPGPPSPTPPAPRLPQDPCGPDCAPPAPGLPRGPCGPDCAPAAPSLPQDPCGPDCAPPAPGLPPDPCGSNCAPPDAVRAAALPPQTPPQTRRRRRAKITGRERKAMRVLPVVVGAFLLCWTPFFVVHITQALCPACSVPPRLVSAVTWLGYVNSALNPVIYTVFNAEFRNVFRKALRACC
The experiment in a line: DRUGMATRIX: Dopamine D4.2 radioligand binding (ligand: [3H] Spiperone). In kind it is cell membranes, CHO-K1, Membrane. The settings on record: cho-k1; Not Active = under 50% inhibition at 10 µM.

In data set [3] the target is T2, Alpha-2C adrenergic receptor (Homo sapiens, UniProt P18825).
T2 sequence (P18825 whole entry): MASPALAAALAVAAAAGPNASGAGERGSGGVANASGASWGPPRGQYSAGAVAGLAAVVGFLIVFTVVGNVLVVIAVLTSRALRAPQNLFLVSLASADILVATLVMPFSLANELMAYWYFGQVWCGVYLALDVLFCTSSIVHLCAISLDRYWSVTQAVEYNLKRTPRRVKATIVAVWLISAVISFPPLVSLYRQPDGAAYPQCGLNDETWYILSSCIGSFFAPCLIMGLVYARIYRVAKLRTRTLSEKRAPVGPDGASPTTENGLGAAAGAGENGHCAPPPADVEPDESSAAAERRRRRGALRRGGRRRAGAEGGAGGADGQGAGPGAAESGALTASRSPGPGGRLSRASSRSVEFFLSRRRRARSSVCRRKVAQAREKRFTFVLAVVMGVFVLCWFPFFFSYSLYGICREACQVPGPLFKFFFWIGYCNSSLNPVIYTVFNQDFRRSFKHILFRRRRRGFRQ
The experiment in a line: DRUGMATRIX: Adrenergic Alpha-2C radioligand binding (ligand: [3H] MK-912). The class given is cell membranes, Sf9, Membrane.

Chain of 5-hydroxytryptamine receptor 1B (P28564 whole entry): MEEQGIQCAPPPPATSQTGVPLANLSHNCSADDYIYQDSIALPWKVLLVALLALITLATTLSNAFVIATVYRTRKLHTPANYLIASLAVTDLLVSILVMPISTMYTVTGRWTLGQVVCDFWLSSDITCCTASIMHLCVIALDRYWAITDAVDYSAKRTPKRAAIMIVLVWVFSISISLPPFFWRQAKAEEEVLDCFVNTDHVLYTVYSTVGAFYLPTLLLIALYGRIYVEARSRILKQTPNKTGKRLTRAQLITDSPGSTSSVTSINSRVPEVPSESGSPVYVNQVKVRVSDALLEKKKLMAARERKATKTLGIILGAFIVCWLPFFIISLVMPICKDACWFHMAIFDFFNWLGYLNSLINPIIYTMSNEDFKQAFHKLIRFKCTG
Chain of Cytochrome P450 2E1 (P05181 whole entry): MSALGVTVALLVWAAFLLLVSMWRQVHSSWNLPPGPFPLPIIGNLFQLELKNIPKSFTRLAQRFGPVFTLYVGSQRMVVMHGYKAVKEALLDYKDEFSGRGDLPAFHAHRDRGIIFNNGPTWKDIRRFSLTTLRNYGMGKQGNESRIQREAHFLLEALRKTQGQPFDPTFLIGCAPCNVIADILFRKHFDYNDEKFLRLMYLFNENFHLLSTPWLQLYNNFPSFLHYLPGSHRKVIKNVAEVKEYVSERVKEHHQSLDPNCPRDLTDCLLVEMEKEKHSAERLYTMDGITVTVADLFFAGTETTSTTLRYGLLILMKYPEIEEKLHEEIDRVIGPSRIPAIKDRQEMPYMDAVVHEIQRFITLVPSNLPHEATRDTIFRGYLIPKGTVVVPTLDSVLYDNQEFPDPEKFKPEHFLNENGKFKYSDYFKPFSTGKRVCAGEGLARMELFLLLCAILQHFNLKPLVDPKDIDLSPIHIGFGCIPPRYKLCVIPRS

For orientation: IC50 means the concentration that gives 50% inhibition. In general, Ki refers to the equilibrium dissociation constant of an inhibitor or competing ligand from its target. Turning to `Nc1ccc(S(=O)(=O)Nc2nccs2)cc1` [SULFATHIAZOLE], the IC50 entry (on Cytochrome P450 2E1; in data set [1] (insect cells); in data set [2]; at D(4) dopamine receptor; in data set [3] (sf9)) was “Not Active” in each case. Further, on Cytochrome P450 2E1, the inhibition constant (Ki) entry is reported as “Not Active”.

`C[C@]12CC[C@H]3[C@@H](CCC4=CC(=O)CC[C@@]43C)[C@@H]1CC[C@@H]2O` [TESTOSTERONE]: the IC50 entry (against Cytochrome P450 2E1; in data set [1] (insect cells); in data set [2]; at D(4) dopamine receptor; in data set [3] (sf9)) was “Not Active” each time. At Cytochrome P450 2E1, the Ki entry is “Not Active”.

As to `CC(C)(C)NC[C@H](O)COc1nsnc1N1CCOCC1` [TIMOLOL], the IC50 entry (at Cytochrome P450 2E1; in data set [1] (insect cells); in data set [2]; on D(4) dopamine receptor; in data set [3] (sf9)) was “Not Active” in each case. For the same molecule, the inhibitory constant (Ki) result at Cytochrome P450 2E1 is listed as “Not Active”.

Regarding `C[C@@H]1C[C@H]2[C@@H]3CCC4=CC(=O)C=C[C@]4(C)C3=CC[C@]2(C)[C@H]1C(=O)CN1CCN(c2cc(N3CCCC3)nc(N3CCCC3)n2)CC1` [TIRILAZAD], the IC50 result at Cytochrome P450 2E1 was “Not Active”; in data set [1] (read-out: IC50), 20.4 µM; in data set [2] it was “Not Active”; at D(4) dopamine receptor, “Not Active”; in data set [3] (read-out: IC50) it was 7.9 µM. Moreover, the Ki entry at Cytochrome P450 2E1 is “Not Active”; in data set [3] (read-out: Ki), 1.15 µM.

On to `NC[C@H]1O[C@H](O[C@H]2[C@H](O)[C@@H](O[C@H]3O[C@H](CO)[C@@H](O)[C@H](N)[C@H]3O)[C@H](N)C[C@@H]2N)[C@H](N)C[C@@H]1O` [TOBRAMYCIN], for which the IC50 result (on Cytochrome P450 2E1; in data set [1] (insect cells); in data set [2]; at D(4) dopamine receptor; in data set [3] (sf9)) was “Not Active” each time. For the same molecule, the Ki entry at Cytochrome P450 2E1 was “Not Active”.

Take `O=C(O)C(Cl)(Cl)Cl` [TRICHLOROACETIC ACID]: the IC50 result (at Cytochrome P450 2E1; in data set [1] (insect cells); in data set [2]; at D(4) dopamine receptor; in data set [3] (sf9)) was “Not Active” each time. The Ki entry on Cytochrome P450 2E1 is recorded as “Not Active”.

`CC(=O)O[C@H]1C[C@@H]2CC[C@@H]3[C@H](CC[C@@]4(C)[C@H]3C[C@H]([N+]3(C)CCCCC3)[C@@H]4OC(C)=O)[C@@]2(C)C[C@@H]1N1CCCCC1.[Br-]` [VECURONIUM BROMIDE]: the IC50 result (on Cytochrome P450 2E1; in data set [1] (insect cells); in data set [2]; on D(4) dopamine receptor; in data set [3] (sf9)) was “Not Active” throughout. Also, the Ki entry at Cytochrome P450 2E1 was “Not Active”.

Turning to `COc1cc(C(=O)NS(=O)(=O)c2ccccc2C)ccc1Cc1cn(C)c2ccc(NC(=O)OC3CCCC3)cc12` [ZAFIRLUKAST], the IC50 result against Cytochrome P450 2E1 was “Not Active”; in data set [1] (read-out: IC50) it was 5.75 µM; in data set [2], “Not Active”; at D(4) dopamine receptor it was “Not Active”; in data set [3] (sf9) it was “Not Active”. The inhibition constant Ki result at Cytochrome P450 2E1 is on record as “Not Active”.

Turning to STANNOUS FLUORIDE, the IC50 entry (against Cytochrome P450 2E1; in data set [1] (insect cells); in data set [2]; on D(4) dopamine receptor; in data set [3] (sf9)) was “Not Active” in each case. Moreover, the Ki result (on Cytochrome P450 2E1; in data set [1] (insect cells); in data set [2]; on D(4) dopamine receptor; in data set [3] (sf9)) was “Not Active” each time.

With THIMEROSAL, the IC50 result is “Not Active” at Cytochrome P450 2E1; “Not Active” in data set [1] (insect cells); “Not Active” in data set [2]; “Not Active” on D(4) dopamine receptor; 5.04 µM in data set [3] (sf9, read-out: IC50). Also, the Ki entry at Cytochrome P450 2E1 was “Not Active”; in data set [1] (insect cells), “Not Active”; in data set [2] it was “Not Active”; on D(4) dopamine receptor it was “Not Active”; in data set [3] (sf9, read-out: Ki), 0.732 µM.
